Experimental findings from ChEMBL document CHEMBL1149386, “Design and synthesis of 5-aryl-pyridone-carboxamides as inhibitors of anaplastic lymphoma kinase” (J Med Chem, 2006) are described below.

Molecules are shown by their SMILES. A value given as a limit tells only on which side of the number the result lay.

In one test the target is Insulin receptor (Homo sapiens, UniProt P06213). Description: Inhibitory activity against IRK.
For test [1], the target named is ALK tyrosine kinase receptor (Homo sapiens, UniProt Q9UM73). Put plainly: Inhibitory activity against ALK.
Test [2] concerns the target T1, Receptor-type tyrosine-protein kinase FLT3 (Homo sapiens, UniProt P36888).
T1 sequence (P36888 whole entry): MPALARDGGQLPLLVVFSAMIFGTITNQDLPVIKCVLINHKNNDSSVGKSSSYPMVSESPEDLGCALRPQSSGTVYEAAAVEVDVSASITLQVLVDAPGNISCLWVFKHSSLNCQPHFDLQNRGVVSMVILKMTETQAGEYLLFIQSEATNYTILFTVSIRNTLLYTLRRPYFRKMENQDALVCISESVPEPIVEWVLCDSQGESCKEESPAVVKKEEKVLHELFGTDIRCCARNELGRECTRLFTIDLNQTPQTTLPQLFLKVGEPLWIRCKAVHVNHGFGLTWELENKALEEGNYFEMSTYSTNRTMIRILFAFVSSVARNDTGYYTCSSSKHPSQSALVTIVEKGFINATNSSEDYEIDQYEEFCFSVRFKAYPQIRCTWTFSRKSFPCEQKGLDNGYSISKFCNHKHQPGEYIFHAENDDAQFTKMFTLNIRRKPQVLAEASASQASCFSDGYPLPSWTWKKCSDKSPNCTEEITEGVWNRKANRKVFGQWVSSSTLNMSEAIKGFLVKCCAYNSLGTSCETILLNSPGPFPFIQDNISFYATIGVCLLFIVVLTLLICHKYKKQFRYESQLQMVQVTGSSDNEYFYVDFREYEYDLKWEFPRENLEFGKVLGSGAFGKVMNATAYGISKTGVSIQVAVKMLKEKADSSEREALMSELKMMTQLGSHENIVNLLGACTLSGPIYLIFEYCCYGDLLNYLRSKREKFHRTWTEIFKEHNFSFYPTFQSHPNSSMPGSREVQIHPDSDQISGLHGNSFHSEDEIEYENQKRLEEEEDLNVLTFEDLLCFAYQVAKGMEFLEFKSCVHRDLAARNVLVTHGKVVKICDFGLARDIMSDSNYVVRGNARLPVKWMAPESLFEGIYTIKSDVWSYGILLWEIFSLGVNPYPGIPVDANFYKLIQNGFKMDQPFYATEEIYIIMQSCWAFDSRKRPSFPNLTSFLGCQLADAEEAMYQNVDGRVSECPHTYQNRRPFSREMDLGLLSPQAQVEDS
Put plainly: Inhibitory activity against Flt3.

Test [3] deals with Tyrosine-protein kinase ABL1 (Homo sapiens, UniProt P00519). Description: Inhibitory activity against Abl.
Chain of Tyrosine-protein kinase ABL1 (P00519 whole entry, the tested form may be a part): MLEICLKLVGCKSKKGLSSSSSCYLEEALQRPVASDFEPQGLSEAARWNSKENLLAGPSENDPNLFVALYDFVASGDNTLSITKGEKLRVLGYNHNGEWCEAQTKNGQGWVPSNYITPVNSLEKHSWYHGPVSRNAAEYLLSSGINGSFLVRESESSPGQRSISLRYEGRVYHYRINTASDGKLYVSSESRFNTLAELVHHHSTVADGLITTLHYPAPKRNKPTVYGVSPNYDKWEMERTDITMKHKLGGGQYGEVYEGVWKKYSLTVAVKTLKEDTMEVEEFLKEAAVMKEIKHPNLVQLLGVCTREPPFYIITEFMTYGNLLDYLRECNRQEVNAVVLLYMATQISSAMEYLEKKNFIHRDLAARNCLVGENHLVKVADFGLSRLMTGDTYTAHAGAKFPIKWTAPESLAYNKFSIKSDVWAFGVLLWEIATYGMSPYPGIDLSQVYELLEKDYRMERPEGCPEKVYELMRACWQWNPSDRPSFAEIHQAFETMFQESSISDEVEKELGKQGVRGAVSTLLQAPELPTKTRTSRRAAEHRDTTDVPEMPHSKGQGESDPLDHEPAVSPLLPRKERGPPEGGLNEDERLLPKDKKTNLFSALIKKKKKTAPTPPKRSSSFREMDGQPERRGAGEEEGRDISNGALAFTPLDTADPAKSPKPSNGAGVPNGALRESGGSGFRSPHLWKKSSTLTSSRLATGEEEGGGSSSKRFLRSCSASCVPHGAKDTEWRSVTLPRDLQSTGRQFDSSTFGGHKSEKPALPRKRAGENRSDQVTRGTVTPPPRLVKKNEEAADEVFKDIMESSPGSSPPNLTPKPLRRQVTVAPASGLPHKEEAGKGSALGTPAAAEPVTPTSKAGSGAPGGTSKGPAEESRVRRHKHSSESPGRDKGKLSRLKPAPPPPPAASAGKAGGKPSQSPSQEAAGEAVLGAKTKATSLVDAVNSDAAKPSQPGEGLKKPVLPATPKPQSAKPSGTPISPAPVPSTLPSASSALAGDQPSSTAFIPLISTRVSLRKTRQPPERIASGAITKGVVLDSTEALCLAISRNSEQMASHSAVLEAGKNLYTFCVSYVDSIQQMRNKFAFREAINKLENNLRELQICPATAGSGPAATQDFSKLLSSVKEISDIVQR
In another test the target is Bcr/Abl fusion protein (Homo sapiens, UniProt P00519). Description: Antiproliferative activity against human BCR-ABL positive chronic myeloid leukemia K562 cell line. Format: functional, cell-based.
Chain of Bcr/Abl fusion protein (P00519 whole entry, the tested form may be a part): as above
Chain of Bcr/Abl fusion protein (P11274 whole entry, further chain, the tested form may be a part): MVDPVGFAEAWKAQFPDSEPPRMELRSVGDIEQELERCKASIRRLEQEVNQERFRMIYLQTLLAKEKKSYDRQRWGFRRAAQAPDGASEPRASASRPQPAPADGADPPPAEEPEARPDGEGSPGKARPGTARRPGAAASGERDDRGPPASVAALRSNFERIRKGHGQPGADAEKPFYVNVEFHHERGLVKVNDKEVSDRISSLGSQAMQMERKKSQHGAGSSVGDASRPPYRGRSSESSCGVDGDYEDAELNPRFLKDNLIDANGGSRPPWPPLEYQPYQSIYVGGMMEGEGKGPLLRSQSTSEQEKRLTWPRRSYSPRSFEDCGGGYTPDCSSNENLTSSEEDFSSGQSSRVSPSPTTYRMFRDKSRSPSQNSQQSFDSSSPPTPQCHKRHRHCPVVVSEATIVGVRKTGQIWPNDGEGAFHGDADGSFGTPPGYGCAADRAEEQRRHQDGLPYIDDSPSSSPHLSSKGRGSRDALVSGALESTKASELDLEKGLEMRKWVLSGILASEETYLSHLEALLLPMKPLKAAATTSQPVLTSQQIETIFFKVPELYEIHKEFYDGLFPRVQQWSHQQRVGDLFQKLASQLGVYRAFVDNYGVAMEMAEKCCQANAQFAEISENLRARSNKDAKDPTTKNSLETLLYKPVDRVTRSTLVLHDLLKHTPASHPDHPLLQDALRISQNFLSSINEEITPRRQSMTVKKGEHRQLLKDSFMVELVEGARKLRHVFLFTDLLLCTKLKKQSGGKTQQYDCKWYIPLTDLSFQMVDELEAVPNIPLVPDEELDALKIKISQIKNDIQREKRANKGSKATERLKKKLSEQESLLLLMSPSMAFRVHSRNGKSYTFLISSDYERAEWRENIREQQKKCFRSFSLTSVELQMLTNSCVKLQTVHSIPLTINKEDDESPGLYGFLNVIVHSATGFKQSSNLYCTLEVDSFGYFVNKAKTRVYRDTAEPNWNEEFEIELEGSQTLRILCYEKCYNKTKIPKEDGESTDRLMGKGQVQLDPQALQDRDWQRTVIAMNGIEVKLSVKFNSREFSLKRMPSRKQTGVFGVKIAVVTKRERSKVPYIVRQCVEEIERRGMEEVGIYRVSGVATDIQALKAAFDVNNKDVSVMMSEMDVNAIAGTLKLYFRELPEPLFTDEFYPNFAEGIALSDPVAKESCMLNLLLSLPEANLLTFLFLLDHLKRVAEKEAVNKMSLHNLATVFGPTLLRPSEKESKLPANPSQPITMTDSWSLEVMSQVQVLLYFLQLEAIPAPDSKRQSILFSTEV
In test [4] the target is Proto-oncogene tyrosine-protein kinase Src (Homo sapiens, UniProt P12931). Put plainly: Inhibitory activity against Src.
Chain of Proto-oncogene tyrosine-protein kinase Src (P12931 2-536 limits assumed): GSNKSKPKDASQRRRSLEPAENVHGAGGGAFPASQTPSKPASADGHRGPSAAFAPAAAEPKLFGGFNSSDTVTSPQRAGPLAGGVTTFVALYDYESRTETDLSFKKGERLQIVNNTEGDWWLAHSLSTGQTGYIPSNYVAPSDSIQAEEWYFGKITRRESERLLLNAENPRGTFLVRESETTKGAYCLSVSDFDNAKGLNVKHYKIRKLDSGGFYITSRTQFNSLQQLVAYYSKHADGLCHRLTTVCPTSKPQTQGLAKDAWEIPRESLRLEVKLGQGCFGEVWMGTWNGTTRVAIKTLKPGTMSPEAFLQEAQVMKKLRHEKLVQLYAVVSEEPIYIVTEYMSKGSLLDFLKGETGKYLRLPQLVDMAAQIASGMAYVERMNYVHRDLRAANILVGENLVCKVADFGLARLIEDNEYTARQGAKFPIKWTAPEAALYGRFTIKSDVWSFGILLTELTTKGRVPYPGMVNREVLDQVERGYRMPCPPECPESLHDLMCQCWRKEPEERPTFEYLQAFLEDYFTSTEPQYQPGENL
In the next test the test system is BaF3. Description: Antiproliferative activity against parental interleukin-3-dependent BaF3 cell line. Format: functional, cell-based. The note with it: Mus musculus.
The subject of the next test is Jurkat. Description: Antiproliferative activity against human T-cell leukemia Jurkat cell line. Format: functional, cell-based.
Test [5] has as its target Insulin-like growth factor 1 receptor (Homo sapiens, UniProt P08069). Put plainly: Inhibitory activity against IGF1R.

Chain of Insulin receptor (P06213 28-758 limits assumed): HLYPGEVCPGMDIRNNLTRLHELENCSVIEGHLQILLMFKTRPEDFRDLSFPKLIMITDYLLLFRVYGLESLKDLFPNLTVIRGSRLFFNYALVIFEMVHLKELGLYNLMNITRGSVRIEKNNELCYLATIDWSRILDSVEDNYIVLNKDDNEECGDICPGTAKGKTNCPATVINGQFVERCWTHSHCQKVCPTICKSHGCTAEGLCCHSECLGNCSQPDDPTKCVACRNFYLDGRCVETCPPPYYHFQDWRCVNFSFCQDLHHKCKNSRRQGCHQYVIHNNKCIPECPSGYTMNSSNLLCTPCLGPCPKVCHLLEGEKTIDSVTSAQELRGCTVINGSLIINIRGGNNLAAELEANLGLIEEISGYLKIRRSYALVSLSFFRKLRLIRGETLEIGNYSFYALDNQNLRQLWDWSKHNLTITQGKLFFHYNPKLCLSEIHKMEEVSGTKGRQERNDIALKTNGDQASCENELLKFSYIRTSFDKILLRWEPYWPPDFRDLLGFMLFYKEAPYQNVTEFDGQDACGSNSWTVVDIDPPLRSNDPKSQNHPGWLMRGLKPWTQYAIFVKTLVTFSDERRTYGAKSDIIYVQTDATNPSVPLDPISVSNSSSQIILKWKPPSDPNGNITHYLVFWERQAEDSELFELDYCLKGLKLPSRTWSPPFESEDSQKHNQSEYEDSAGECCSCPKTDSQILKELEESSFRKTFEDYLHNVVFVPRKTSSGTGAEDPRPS
Chain of Insulin receptor (P06213 763-1382 limits assumed): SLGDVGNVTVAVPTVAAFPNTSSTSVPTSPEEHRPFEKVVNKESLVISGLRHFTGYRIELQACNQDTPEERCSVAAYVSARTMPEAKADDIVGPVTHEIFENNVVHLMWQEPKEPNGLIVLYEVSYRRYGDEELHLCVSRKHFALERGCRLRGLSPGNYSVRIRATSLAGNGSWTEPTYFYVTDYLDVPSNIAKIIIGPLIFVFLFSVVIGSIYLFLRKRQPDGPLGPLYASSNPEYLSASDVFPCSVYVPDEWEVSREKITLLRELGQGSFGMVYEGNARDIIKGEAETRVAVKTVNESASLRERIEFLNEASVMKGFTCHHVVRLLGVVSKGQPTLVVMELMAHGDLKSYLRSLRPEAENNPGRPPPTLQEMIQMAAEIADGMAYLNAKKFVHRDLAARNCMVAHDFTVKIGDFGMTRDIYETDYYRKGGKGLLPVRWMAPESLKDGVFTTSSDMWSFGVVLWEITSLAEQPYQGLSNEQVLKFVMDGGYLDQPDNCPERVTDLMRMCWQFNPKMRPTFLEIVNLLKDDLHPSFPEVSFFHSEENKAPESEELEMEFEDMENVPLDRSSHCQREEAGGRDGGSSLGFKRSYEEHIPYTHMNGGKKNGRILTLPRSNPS

Regarding `COc1ncc(-c2ccc3c(c2)OCO3)cc1C(=O)Nc1ccc(CN2CCN(C)CC2)cc1`, the IC50 on Insulin receptor was greater than 40 µM; in [1] it was 20.3 µM.

For `COc1ccc(-c2c[nH]c(=O)c(C(=O)Nc3ccc(CN4CCN(C)CC4)cc3)c2)cn1`, the IC50 on Insulin receptor came to 13.8 µM; in [1], 3 µM.

`CN1CCN(CCCc2ccc(NC(=O)c3cc(-c4ccc5c(c4)OCO5)cnc3O)cc2)CC1`: the IC50 was 10.1 µM against Insulin receptor; greater than 20 µM in [2]; greater than 20 µM in test [3]; 14.6 µM against Bcr/Abl fusion protein; greater than 20 µM in test [4]; 16.2 µM in the test with BaF3. The IC50 was 9.3 µM in the test with Jurkat, greater than 20 µM in test [5] and 1.3 µM in test [1]. Further, the values for the Ki (at Insulin receptor; in test [1]) were 9 µM and 1.1 µM, respectively.

For the compound `Cc1cc(CN2CCN(C)CC2)ccc1NC(=O)c1cc(-c2ccc3c(c2)OCO3)cnc1O`, the IC50 on Insulin receptor is greater than 40 µM; in [1], 14.5 µM.

With `CN1CCN(Cc2ccc(NC(=O)c3cc(-c4ccc5nccnc5c4)c[nH]c3=O)cc2)CC1`, the results for the IC50 (against Insulin receptor; in test [1]) were 7 µM and 5.5 µM, respectively.

As for `COc1cc(-c2c[nH]c(=O)c(C(=O)Nc3ccc(CN4CCN(C)CC4)cc3)c2)cc(OC)c1OC`, the IC50 on Insulin receptor was 33.5 µM; in test [1], 7.5 µM.

On to `CN1CCN(c2ccc(NC(=O)c3cc(-c4ccc5c(c4)OCO5)c[nH]c3=O)cc2)CC1`, for which the IC50 was 5 µM in test [2], greater than 20 µM in [3], 3.8 µM against Bcr/Abl fusion protein and greater than 20 µM in [4].

Consider `CN1CCN(CCc2ccc(NC(=O)c3cc(-c4ccc5c(c4)OCO5)cnc3O)cc2)CC1`, for which the IC50 is 4 µM in test [2]; greater than 20 µM in test [3]; 9.5 µM on Bcr/Abl fusion protein; greater than 20 µM in test [4]; 18 µM with BaF3; 4.7 µM in the test on Jurkat. In test [1], this compound had an IC50 of 0.4 µM. In addition, the affinity in test [1], expressed as Ki, was 0.2 µM.

With `CN1CCN(Cc2ccc(NC(=O)c3cc(-c4ccncc4)cnc3O)cc2)CC1`, the IC50 is greater than 40 µM against Insulin receptor and 19.5 µM in test [1].

For the compound `CN1CCN(Cc2ccc(NC(=O)c3cc(-c4ccc5c(c4)OCO5)cnc3O)cc2)CC1`, the IC50 in test [2] was greater than 20 µM; in [3], greater than 20 µM; at Bcr/Abl fusion protein it was 12.9 µM; in test [4], greater than 20 µM; in the test on BaF3, greater than 25 µM; with Jurkat it was 9.2 µM. Also, the 50% inhibitory concentration (IC50) is greater than 20 µM in [5] and 0.9 µM in test [1]. The compound also came in with a Ki in test [1] of 0.5 µM.

As to `CN1CCN(Cc2ccc(N(C)C(=O)c3cc(-c4ccc5c(c4)OCO5)cnc3O)cc2)CC1`, the IC50 came to 32.5 µM against Insulin receptor and 3.7 µM in test [1].

`CN1CCN(Cc2ccc(NC(=O)c3cc(-c4ccc5c(c4)OCO5)cn(C)c3=O)cc2)CC1`: the IC50 (against Insulin receptor; in [1]) was greater than 40 µM each time.

In the case of `Cc1nc2cc(-c3cnc(O)c(C(=O)Nc4ccc(CN5CCN(C)CC5)cc4)c3)ccc2s1`, the IC50 was determined as 16 µM on Insulin receptor and 3.8 µM in [1].

Consider `CN1CCN(Cc2ccc(NC(=O)c3cc(-c4ccc5c(c4)OCO5)cnc3Cl)cc2)CC1`, for which the IC50 on Insulin receptor amounted to 27.3 µM; in test [1], 26.8 µM.

Turning to `COc1cc(CN2CCN(C)CC2)ccc1NC(=O)c1cc(-c2ccc3c(c2)OCO3)cnc1O`, the IC50 was greater than 40 µM against Insulin receptor and 13.8 µM in test [1].

What is called IC50 is the concentration needed to halve the response being measured. What is called Ki is a dissociation constant, usually derived from enzyme kinetics or from competition with a known ligand.
